How the values were obtained:
[1] = tested on: MSCs; experiment: MSC migration towards SDF-1 in a transwell culture system; type: cell-based, Fisher 344 rats; conditions: pre-incubation of MSCs with the agent, FIG. 7
Description: AMD 3100 is a non-peptide antagonist of CXCR4 and Diprotin A (Ile-Pro-Ile, Peptides International, Louisville, Ky.) is a commonly used example of a CD26 inhibitor. […] Thus, the invention provides for the use of a CD26 inhibitor for the treatment of renal organ dysfunction (i.e., damage or injury), particularly, in combination with the use of MSCs. For example, it is believed that inhibition of SDF-1 inactivation will increase the homing of administered MSCs to an injured kidney and potentiate renal repair.
Bone marrow-derived MSCs from Fisher 344 rats were used for in vitro experiments. […] In addition, cultured MSCs express functional CD26 and can effectively inactivate SDF-1. […] As a result of the in vitro data, it is reasoned that inhibiting CD26 will augment the SDF-1-CXCR4 mediated chemotactic activity of MSCs in vivo. Thus, the invention relates to pre-treatment or co-administration of MSCs with a CD26 inhibitor to augment the homing and renal protective functions of MSCs administered to a subject to treat a disease involving organ failure or organ dysfunction.

[2] = tested on: Sca-1+lin-donor cells; conditions: donor cells treated with 5 mM Diprotin A for 15 minutes before transplant; FIG. 4, Christopherson II et al. (2004); cited from earlier work
[3] = tested on: rats with I/R ARF; experiment: I/R ARF rat model, CD26 inhibitor given before MSCs (Example II); type: in vivo; conditions: MSCs following Diprotin A
Description: All procedures involving animals are approved by the respective Institutional Animal Care and Use Committees of the University of Utah, Veterans Affairs Medical Center (Salt Lake City, Utah), Indiana University (Indianapolis, Ind.), and the University of Hamburg (Hamburg, Germany). Animals are housed at a constant temperature and humidity, with a 12:12-h light-dark cycle, and have unrestricted access to a standard diet and tap water. Adult male Sprague-Dawley (SD) and Fisher 344 (F344) rats weighing 200-300 g are preferably used (Charles River, Wilmington, Mass.).
I/R ARF is induced in isoflurane-anesthetized animals, and rectal temperature is maintained at 37° C. After a midabdominal laparatomy, kidneys are exposed and renal pedicles are clamped with atraumatic vascular clamps for about 40 min. […]
Quantification of cell numbers. CFDA-labeled green fluorescing cells are examined and quantified in kidneys at 2, 24, 36, 48, 60, and/or 72 h after ARF and cell infusions. Nuclei are stained with either Hoechst 33342 or propidium iodide, and nuclei are counted in at least three high-power fields (HPF) per section based on a calibrated confocal micrometer measurement bar. After this, total cell numbers of the studied tissue sections are calculated based on the number of nuclei and surface area of the section.
Renal function may be assessed by serum creatinine and/or blood urea nitrogen levels. […]

Compound	MSC migration towards SDF-1 [1]	homing of HSCs from the circulation to bone [2]	renal function (serum creatinine and/or blood urea nitrogen) ([3]; by at least days 2 and/or 3, relative to MSC only treated animals)	migration of MSCs to the kidney ([3]; relative to MSC only treated animals)
c1cc(CN2CCCNCCNCCCNCC2)ccc1CN1CCCNCCNCCCNCC1 [AMD 3100]	decreased			
H-Ile-Pro-Ile-OH [Diprotin A]	significantly increased	can increase homing of HSCs	significantly improved renal function	increased migration of MSCs to the kidney

Reference: patent publication US20100247491A1, “Potentiation of Stem Cell Homing and Treatment of Organ Dysfunction or Organ Failure” (priority 2007, published 2010)
